Results as given in patent US10533010B2, “Substituted indole Mcl-1 inhibitors” (Vanderbilt University, priority 2014, dated 2020).

target: recombinant Mcl-1 (residues 172-327) (Homo sapiens (Human), UniProt Q07820); test: Fluorescence polarization anisotropy competition assay (FITC-Bak or FITC-Bim BH3 peptide) with Mcl-1; assay type: binding; conditions: Table 2; Ki bins given in nM; FITC-Bak or FITC-Bim peptide competition; Ki converted from IC50; read-out: Ki for Inhibition of Mcl-1
Sequence (Q07820 172-327): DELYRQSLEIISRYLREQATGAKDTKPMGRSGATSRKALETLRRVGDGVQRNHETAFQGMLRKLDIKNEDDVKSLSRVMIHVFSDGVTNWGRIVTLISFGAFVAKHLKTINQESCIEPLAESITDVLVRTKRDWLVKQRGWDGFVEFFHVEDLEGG

`Cc1cc(OCCCc2c3n(c4c(-c5c(C)nn(C)c5C)c(Cl)ccc24)CCCN(c2cccc4c2ccn4C)C3=O)cc(C)c1Cl` [I-247, 8-chloro-1-(3-(4-chloro-3,5-dimethylphenoxy)propyl)-2-(1-methyl-1H-indol-4-yl)-7-(1,3,5-trimethyl-1H-pyrazol-4-yl)-2,3,4,5-tetrahydro-1H-[1,4]diazepino[1,2-a]indol-1-one] and `Cc1cc(OCCCc2c3n(c4c(-c5c(C)nn(C)c5C)c(Cl)ccc24)CCCN(c2ccc4ccn(C)c4c2)C3=O)cc(C)c1Cl` [I-248, 8-chloro-1-(3-(4-chloro-3,5-dimethylphenoxy)propyl)-2-(1-methyl-1H-indol-6-yl)-7-(1,3,5-trimethyl-1H-pyrazol-4-yl)-2,3,4,5-tetrahydro-1H-[1,4]diazepino[1,2-a]indol-1-one] cannot be ordered by Ki: less than 50 nM for the first, less than 50 nM for the second.

`CCn1ccc2c(N3CCCn4c(c(CCCOc5cc(C)c(Cl)c(C)c5)c5ccc(Cl)c(-c6c(C)nn(C)c6C)c54)C3=O)cc(C(=O)O)cc21` [I-249, 4-(8-chloro-11-(3-(4-chloro-3,5-dimethylphenoxy)propyl)-1-oxo-7-(1,3,5-trimethyl-1H-pyrazol-4-yl)-4,5-dihydro-1H-[1,4]diazepino[1,2-a]indol-2(3H)-yl)-1-ethyl-1H-indole-6-carboxylic acid] and `Cc1cc(OCCCc2c3n(c4c(-c5c(C)nn(C)c5C)c(Cl)ccc24)CCCN(c2cc(C(=O)O)cc4[nH]ccc24)C3=O)cc(C)c1Cl` [I-252, 4-(8-chloro-11-(3-(4-chloro-3,5-dimethylphenoxy)propyl)-1-oxo-7-(1,3,5-trimethyl-1H-pyrazol-4-yl)-4,5-dihydro-1H-[1,4]diazepino[1,2-a]indol-2(3H)-yl)-1H-indole-6-carboxylic acid] cannot be ordered by Ki: less than 50 nM for the first, less than 50 nM for the second.

`Cc1cc(OCCCc2c3n(c4c(-c5c(C)nn(C)c5C)c(Cl)ccc24)CCCN(c2cc(C(=O)O)c4c(ccn4C)c2)C3=O)cc(C)c1Cl` [I-250, 5-(8-chloro-11-(3-(4-chloro-3,5-dimethylphenoxy)propyl)-1-oxo-7-(1,3,5-trimethyl-1H-pyrazol-4-yl)-4,5-dihydro-1H-[1,4]diazepino[1,2-a]indol-2(3H)-yl)-1-methyl-1H-indole-7-carboxylic acid] and `Cc1cc(OCCCc2c3n(c4c(-c5c(C)nn(C)c5C)c(Cl)ccc24)CCCN(c2cc(C(=O)O)c4cc[nH]c4c2)C3=O)cc(C)c1Cl` [I-253, 6-(8-chloro-11-(3-(4-chloro-3,5-dimethylphenoxy)propyl)-1-oxo-7-(1,3,5-trimethyl-1H-pyrazol-4-yl)-4,5-dihydro-1H-[1,4]diazepino[1,2-a]indol-2(3H)-yl)-1H-indole-4-carboxylic acid] cannot be ordered by Ki: less than 50 nM for the first, less than 50 nM for the second.

`Cc1cc(OCCCc2c3n(c4c(-c5c(C)nn(C)c5C)c(Cl)ccc24)CCCN(c2cc(C(=O)O)cc4c2c(C=O)cn4C)C3=O)cc(C)c1Cl` [I-254, 4-(8-chloro-11-(3-(4-chloro-3,5-dimethylphenoxy)propyl)-1-oxo-7-(1,3,5-trimethyl-1H-pyrazol-4-yl)-4,5-dihydro-1H-[1,4]diazepino[1,2-a]indol-2(3H)-yl)-3-formyl-1-methyl-1H-indole-6-carboxylic acid] and `Cc1cc(OCCCc2c3n(c4c(-c5c(C)nn(C)c5C)c(Cl)ccc24)CCCN(c2cc(C(=O)O)cc4c2c(Cl)cn4C)C3=O)cc(C)c1Cl` [I-255, 3-chloro-4-(8-chloro-11-(3-(4-chloro-3,5-dimethylphenoxy)propyl)-1-oxo-7-(1,3,5-trimethyl-1H-pyrazol-4-yl)-4,5-dihydro-1H-[1,4]diazepino[1,2-a]indol-2(3H)-yl)-1-methyl-1H-indole-6-carboxylic acid] cannot be ordered by Ki: less than 50 nM for the first, less than 50 nM for the second.

`Cc1cc(OCCCc2c3n(c4c(-c5c(C)nn(C)c5C)c(Cl)ccc24)CCCN(c2cc(C(=O)O)cc4c2c(Br)cn4C)C3=O)cc(C)c1Cl` [I-256, 3-bromo-4-(8-chloro-11-(3-(4-chloro-3,5-dimethylphenoxy)propyl)-1-oxo-7-(1,3,5-trimethyl-1H-pyrazol-4-yl)-4,5-dihydro-1H-[1,4]diazepino[1,2-a]indol-2(3H)-yl)-1-methyl-1H-indole-6-carboxylic acid] and `Cc1cc(OCCCc2c3n(c4c(-c5c(C)nn(C)c5C)c(Cl)ccc24)CCCN(c2cc(C(=O)O)c4c(Br)cn(C)c4c2)C3=O)cc(C)c1Cl` [I-258, 3-bromo-6-(8-chloro-11-(3-(4-chloro-3,5-dimethylphenoxy)propyl)-1-oxo-7-(1,3,5-trimethyl-1H-pyrazol-4-yl)-4,5-dihydro-1H-[1,4]diazepino[1,2-a]indol-2(3H)-yl)-1-methyl-1H-indole-4-carboxylic acid] cannot be ordered by Ki: less than 50 nM for the first, less than 50 nM for the second.

First: Cc1cc(OCCCc2c3n(c4c(-c5c(C)nn(C)c5C)c(Cl)ccc24)CCCN(c2cc(C(=O)O)c4c(Cl)cn(C)c4c2)C3=O)cc(C)c1Cl [I-257, 3-chloro-6-(8-chloro-11-(3-(4-chloro-3,5-dimethylphenoxy)propyl)-1-oxo-7-(1,3,5-trimethyl-1H-pyrazol-4-yl)-4,5-dihydro-1H-[1,4]diazepino[1,2-a]indol-2(3H)-yl)-1-methyl-1H-indole-4-carboxylic acid]
Second: Cc1cc(OCCCc2c(C(=O)N(C)Cc3cc(C(=O)O)c(C)o3)n(C)c3c(-c4c(C)nn(C)c4C)cccc23)cc(C)c1Cl [I-274, 5-((3-(3-(4-chloro-3,5-dimethylphenoxy)propyl)-N,1-dimethyl-7-(1,3,5-trimethyl-1H-pyrazol-4-yl)-1H-indole-2-carboxamido)methyl)-2-methylfuran-3-carboxylic acid]
The Ki of the first is lower: less than 50 nM for the first, 101 to 299 nM for the second. The first binds more tightly here.

Compared with `Cc1cc(OCCCc2c(C(=O)NCc3ccnc(N4CCc5ccccc5C4)c3)[nH]c3c(-c4c(C)nn(C)c4C)cccc23)cc(C)c1Cl` [I-263, 3-(3-(4-chloro-3,5-dimethylphenoxy)propyl)-N-((2-(3,4-dihydroisoquinolin-2(1H)-yl)pyridin-4-yl)methyl)-7-(1,3,5-trimethyl-1H-pyrazol-4-yl)-1H-indole-2-carboxamide], `Cc1cc(OCCCc2c(C(=O)NCc3ccc(C(=O)N[C@@H](Cc4ccccc4)C(=O)O)o3)[nH]c3c(-c4c(C)nn(C)c4C)cccc23)cc(C)c1Cl` [I-271, (5-((3-(3-(4-chloro-3,5-dimethylphenoxy)propyl)-7-(1,3,5-trimethyl-1H-pyrazol-4-yl)-1H-indole-2-carboxamido)methyl)furan-2-carbonyl)-L-phenylalanine] is lower in Ki: 301 to 500 nM for the first, less than 50 nM for the second. The second binds more tightly here.

First: Cc1cc(OCCCc2c(C(=O)N(C)Cc3ccc(C(=O)O)o3)n(C)c3c(-c4c(C)nn(C)c4C)cccc23)cc(C)c1Cl [I-269, 5-((3-(3-(4-chloro-3,5-dimethylphenoxy)propyl)-N,1-dimethyl-7-(1,3,5-trimethyl-1H-pyrazol-4-yl)-1H-indole-2-carboxamido)methyl)furan-2-carboxylic acid]
Second: Cc1cc(OCCCc2c(C(=O)NCc3cc(C(=O)O)c(C)o3)[nH]c3c(-c4c(C)nn(C)c4C)cccc23)cc(C)c1Cl [I-273, 5-((3-(3-(4-chloro-3,5-dimethylphenoxy)propyl)-7-(1,3,5-trimethyl-1H-pyrazol-4-yl)-1H-indole-2-carboxamido)methyl)-2-methylfuran-3-carboxylic acid]
The Ki of the first is higher: 101 to 299 nM for the first, less than 50 nM for the second. The second binds more tightly here.

`CC[C@H](C)[C@H](NC(=O)c1ccc(CNC(=O)c2[nH]c3c(-c4c(C)nn(C)c4C)cccc3c2CCCOc2cc(C)c(Cl)c(C)c2)o1)C(=O)O` [I-270, (5-((3-(3-(4-chloro-3,5-dimethylphenoxy)propyl)-7-(1,3,5-trimethyl-1H-pyrazol-4-yl)-1H-indole-2-carboxamido)methyl)furan-2-carbonyl)-L-isoleucine] gave a Ki of less than 50 nM.

same assay, conditions: Table 2; Ki bins given in μM; FITC-Bak or FITC-Bim peptide competition; Ki converted from IC50; read-out: Ki for Inhibition of Mcl-1

`Cc1cc(OCCCc2c(C(=O)N3CCC(NC(=O)c4cccc(Oc5ccccc5)c4)CC3)[nH]c3ccccc23)cc(C)c1Cl` [I-259, N-(1-(3-(3-(4-chloro-3,5-dimethylphenoxy)propyl)-1H-indole-2-carbonyl)piperidin-4-yl)-3-phenoxybenzamide] and `Cc1cc(OCCCc2c(C(=O)NCc3ccc(N4CCc5ccccc5C4)nc3)[nH]c3c(-c4c(C)nn(C)c4C)cccc23)cc(C)c1Cl` [I-261, 3-(3-(4-chloro-3,5-dimethylphenoxy)propyl)-N-((6-(3,4-dihydroisoquinolin-2 (1H)-yl)pyridin-3-yl)methyl)-7-(1,3,5-trimethyl-1H-pyrazol-4-yl)-1H-indole-2-carboxamide] fall in the same range of Ki: 1000 to 9990 nM for the first, 1000 to 9990 nM for the second.

`Cc1cc(OCCCc2c(C(=O)NCc3cccc(OC(F)(F)F)c3)[nH]c3c(-c4c(C)nn(C)c4C)cccc23)cc(C)c1Cl` [I-264, 3-(3-(4-chloro-3,5-dimethylphenoxy)propyl)-N-(3-(trifluoromethoxy)benzyl)-7-(1,3,5-trimethyl-1H-pyrazol-4-yl)-1H-indole-2-carboxamide] and `Cc1cc(CNC(=O)c2[nH]c3c(-c4c(C)nn(C)c4C)cccc3c2CCCOc2cc(C)c(Cl)c(C)c2)cc(OC(F)(F)F)c1` [I-265, 3-(3-(4-chloro-3,5-dimethylphenoxy)propyl)-N-(3-methyl-5-(trifluoromethoxy)benzyl)-7-(1,3,5-trimethyl-1H-pyrazol-4-yl)-1H-indole-2-carboxamide] fall in the same range of Ki: 1000 to 9990 nM for the first, 1000 to 9990 nM for the second.

Compared with `CCOC(=O)c1ccc(CNC(=O)c2[nH]c3c(-c4c(C)nn(C)c4C)cccc3c2CCCOc2cc(C)c(Cl)c(C)c2)o1` [I-266, ethyl 5-((3-(3-(4-chloro-3,5-dimethylphenoxy)propyl)-7-(1,3,5-trimethyl-1H-pyrazol-4-yl)-1H-indole-2-carboxamido)methyl)furan-2-carboxylate], `Cc1cc(OCCCc2c(C(=O)NCc3cc(C(=O)NCc4ccccc4)c(C)o3)[nH]c3c(-c4c(C)nn(C)c4C)cccc23)cc(C)c1Cl` [I-275, N-((4-(benzylcarbamoyl)-5-methylfuran-2-yl)methyl)-3-(3-(4-chloro-3,5-dimethylphenoxy)propyl)-7-(1,3,5-trimethyl-1H-pyrazol-4-yl)-1H-indole-2-carboxamide] is lower in Ki: 10000 to 50000 nM for the first, 1000 to 9990 nM for the second.
